“Also recorded” adds a separate entry of the source. Like-named read-outs stand apart in the source and are kept apart here. Marks after values point to notes of the source that are not given here.
What was measured:
[1] = Exposure (AUC, Cmax) of Compound 1 in the mouse, free and total drug; details: in vivo, po
Description: (§1) In contrast to use of allometric conversion factors, FIGS. 6A-D summarize the pharmacokinetics of Compound 1 administration in humans, showing that a conversion factor for Compound 1 based on free drug in humans compared to free drug in mice can be derived to estimate the effective target AUC and Cmax, thus accounting for the differences in free drug between these species.
(§2) As shown by the dashed line, this predicts that the estimated dose in a human patient of about 2.0 mg/kg (biw) or higher of Compound 1 would be effective.

[2] = Phase 1a clinical trial NCT02404480, safety, PK and response; format: in vivo, human; details: human, in vivo, 2.6 mg/kg, NCT02404480 PK profile, FIG. 6
Description: (§3) FIG. 5 summarizes the duration of Compound 1 treatment alone in an […] (AST) Phase 1a clinical trial (NCT02404480) of 31 evaluable patients to determine safety and pharmacokinetics. The initial human dose of 0.65 mg/kg was based on a rat model MTD of 40 mg/kg, with subsequent higher human dose ranging at 1.3 mg/kg, 2.6 mg/kg, 5.2 mg/kg, 7 mg/kg, and 10 mg/kg. The Standard 3+3 trial design, with 3 patients per cohort, allowed dose escalation for each cohort absent a dose-limiting toxicity (DLT), enabling the next cohort to be treated at the next higher dose. In the event any one patient in the cohort experienced a DLT at a particular dose, the next cohort would be treated at the same dose. A full pharmacokinetic review of each patient was taken on Day 1 and Day 29, with a partial review taken on Day 15.
(§4) NCT02404480: Phase 1 Study, open-label, first-in-human, evaluated safety and pharmacokinetic (PK) profile for use of Compound 1 in patients with advanced solid tumor (AST) cancers, determined the RP2D (recommended phase II clinical trial dose) according to escalating dose levels.
(§5) Compound 1 was administered as a […] in NCT02404480, a Phase 1a clinical trial designed to evaluate safety and PK profile for use of Compound 1 in patients with advanced solid tumor (AST) cancers.

[3] = test system: advanced solid tumor (AST) cancers; test: as above; format: in vivo, human; details: 31 evaluable patients; Compound 1 alone
Description: as §3, §4, §5

[4] = test system: SK-LMS-1 human leiomyosarcoma tumors; format: in vivo
Text: (§6) Leiomyosarcoma accounts for 5-10% of soft tissue sarcomas. Typically, leiomyosarcomas have a complex karyotype and are associated with p53 mutations (Yang J, Du X, Chen K, Ylipaa A, Lazar A J, Trent J, Lev D, Pollock R, Hao X, Hunt K, Zhang W. Genetic aberrations in soft tissue leiomyosarcoma. Cancer Lett. 2009 Mar. 8; 275(1):1-8). The cell line, SK-LMS-1 has a complex karyotype and a mutated p53 gene. Chemotherapy with doxorubicin-based drug regimens such as a combination of doxorubicin and ifosfamide is the standard of care. However, these regimens usually result in cardiotoxicity, rapid development of resistance, and no significant survival advantage. In a previous study utilizing the SK-LMS-1 model, Compound 1 (Cpd 1) was tested at a constant dose (12.5 mg/kg biw) in combination with varying doses/regimens of doxorubicin and gemcitabine. […] Here, SK-LMS-1 cells were passaged for a more extended time in vivo relative to the prior study generating a more aggressive tumor model. This study tested the efficacy of Cpd 1 alone and in combination with the chemotherapeutic agents Doxil and DTIC in the treatment of mice bearing SK-LMS-1 human leiomyosarcoma tumors.
(§7) A negative coefficient indicates greater inhibition in the combination group than expected based on the activity of the monotherapies. The more negative the coefficient, the greater the activity of the combination.
Tumors were ˜222 mm3 in volume when dosing was initiated. […] Interaction coefficients were determined using the AUCs of the Day 0 to Day 28 tumor volume vs day curves. To take into account the data after Day 28, interaction coefficients were calculated for the median time to reach 1000 mm^3. A negative interaction coefficient indicates synergy.
as §7

Rat model MTD = details: in vivo
[5] = Predicted effective human dose from mouse exposure and measured human exposure (FIGS. 6A-D); format: in vivo; details: monotherapy, orally twice per week
Text: FIGS. 6A-D summarize the pharmacokinetics of Compound 1 administered as a monotherapy in humans (as measured by AUCLast and Cmax) two times per week in the AST trial, wherein the dotted line in each figure indicates free drug concentration.
as §1, §2
As shown by the dashed line, this predicts that the estimated dose in a human patient of about 1.4 mg/kg (biw) or higher of Compound 1 would be effective.
As shown by the dashed line, this predicts that the estimated dose in a human patient of about 2.3 mg/kg (biw) or higher of Compound 1 would be effective.
As shown by the dashed line, this predicts that the estimated dose in a human patient of about 1.8 mg/kg (biw) or higher of Compound 1 would be effective.

[6] = test system: SK-UT-1 leiomyosarcoma tumor cells; format: in vivo
Description: as §7
This study utilized SK-UT-1 leiomyosarcoma tumor cells implanted into the flank of athymic nude mice.
To compare tumor growth, the area under the curve comparing tumor volume vs day for each individual mouse was calculated and then averaged for each group.
Interaction coefficients were determined using the AUCs of the Day 0 to Day 25 tumor volume vs day curves. To take into account the data after Day 25, interaction coefficients were also calculated for the median time to reach 1000 mm3. A negative interaction coefficient indicates synergy.

SK-LMS-1 model = test: Previous study in the SK-LMS-1 model (doxorubicin, gemcitabine combinations); format: in vivo; details: Cpd 1 12.5 mg/kg biw with varying doses/regimens of doxorubicin and gemcitabine
Text: as §6

[7] = DTIC 4 mg/kg IP tiw, alone or with Cpd 1 12.5 mg/kg PO biw
[8] = DTIC 21 mg/kg IP qd5, alone or with Cpd 1 12.5 mg/kg PO biw
[9] = docetaxel 15 mg/kg IP QW6, alone or with Cpd 1 12.5 mg/kg
[10] = docetaxel 15 mg/kg IP qw6, alone or with Cpd 1 12.5 mg/kg biw6

## Cc1nc2ccc(F)cc2n1-c1nc(N)c(F)c(Nc2ccc(C(F)(F)F)cc2)n1 [Compound 1, 5-fluoro-2-(6-fluoro-2-methyl-1H-benzo[d]imidazol-1-yl)-N^4-[4-(trifluoromethyl)phenyl]pyrimidine-4,6-diamine]
[1]; Dose in Mouse 10 mg/kg
  AUC: 21000 ng·h/mL
  Cmax: 1100 ng/mL
[1]; Dose in Mouse 12.5 mg/kg
  AUC: 26200 ng·h/mL
  Cmax: 1380 ng/mL
[2]; read-out: target AUCLast
  AUC(0-t): 13100 ng·h/mL
[2]; read-out: target Cmax
  Cmax: 679 ng/mL
[3]
  patients with a mixed/partial response: 2/31
  patients with stable disease: 5/31
[4]; Cpd 1 12.5 mg/kg PO biw alone
  median time for tumor volume for individual mice to reach 1000 mm^3: 23 days
  percent reduction in tumor volume at Day 28 (%): 21%
[4]; Cpd 1 12.5 mg/kg biw alone, all mice euthanized
  mean tumor volume on Day 32: 1607 mm^3
[4]; Cpd 1 12.5 mg/kg biw alone, ~222 mm3 at start of dosing
  mean tumor volume on Day 28: 1388 mm3
Rat model MTD
  MTD: 40 mg/kg
[5]; targeting free drug at 12.5 mg/kg in the mouse
  minimum effective amount for a 70 kg human subject, for Cmax: about 124 mg
[5]; targeting total drug at 12.5 mg/kg in the mouse
  minimum effective amount for a 70 kg human subject, for Cmax: about 226 mg
[6]; Cpd 1 12.5 mg/kg BIW6 alone
  inhibition vs vehicle at Day 25: 35%
[6]; Cpd 1 12.5 mg/kg BIW6 alone, vs vehicle
  delay of the median time for tumor growth to reach 1000 mm^3: ~1.7 fold
[6]; Cpd 1 12.5 mg/kg PO biw6 alone
  median time for tumor volume for individual mice to reach 1000 mm^3: 31.2 days
  percent reduction in tumor volume at Day 28 (%): 35.4* %
[6]; Cpd 1 12.5 mg/kg alone, all mice euthanized
  mean tumor volume on Day 42: 1508 mm^3
[6]; Cpd 1 12.5 mg/kg alone, ~163 mm^3 at start of dosing
  mean tumor volume on Day 25: 983 mm^3

## CN(C)/N=N/c1[nH]cnc1C(N)=O [DTIC, dacarbazine, reference compound]
[4]; [7]
  median time for tumor volume for individual mice to reach 1000 mm^3: 19 days
  percent reduction in tumor volume at Day 28 (%): 0%
[4]; DTIC 4 mg/kg IP tiw, alone or with Cpd 1 12.5 mg/kg biw
  effect on tumor growth: no activity
[4]; [8]
  median time for tumor volume for individual mice to reach 1000 mm^3: 35 days
  percent reduction in tumor volume at Day 28 (%): 74* %

## COc1cccc2c1C(=O)c1c(O)c3c(c(O)c1C2=O)C[C@@](O)(C(=O)CO)C[C@@H]3O[C@H]1C[C@H](N)[C@H](O)[C@H](C)O1 [Doxorubicin, doxorubicin]
SK-LMS-1 model
  efficacy: not active as a monotherapy or in combination with Cpd 1

## CC(=O)O[C@@]12CO[C@@H]1C[C@H](O)[C@@]1(C)C(=O)[C@H](O)C3=C(C)[C@@H](OC(=O)[C@H](O)[C@@H](NC(=O)OC(C)(C)C)c4ccccc4)C[C@@](O)([C@@H](OC(=O)c4ccccc4)[C@H]21)C3(C)C [docetaxel]
[6]; docetaxel 5 mg/kg IP BIW5.5, alone or with Cpd 1
  effect on tumor growth: no efficacy as a monotherapy
[6]; docetaxel 5 mg/kg IP biw5.5 (11 doses), alone or with Cpd 1 12.5 mg/kg biw6
  percent reduction in tumor volume at Day 28 (%): 2.27%
[6]; docetaxel 5 mg/kg IP biw5.5, alone or with Cpd 1 12.5 mg/kg biw6
  median time for tumor volume for individual mice to reach 1000 mm^3: 18.9 days
[6]; docetaxel 15 mg/kg IP QW6, alone or with Cpd 1
  effect on tumor growth: tumor growth was delayed; also recorded: more effective than Cpd 1
[6]; [9]
  inhibition vs vehicle at Day 25: 78%
  mean tumor size at Day 25: 1486 mm^3
[6]; [10]
  median time for tumor volume for individual mice to reach 1000 mm^3 (Days): 50.1* Days
  percent reduction in tumor volume at Day 28 (%): 77.8* %
